Measurements taken from US9695155B2, “Herbicidal substituted pyrimidinyloxy benzene compounds” (E. I. DU PONT DE NEMOURS AND COMPANY, priority 2013, dated 2017).

Columns and labels:
Assay in all cases: Test E preemergence
soybean = type: in vivo, Glycine max; conditions: for Soybean plant response rating: scale 0 to 100 (0 no effect, 100 complete control)
Text: (§1) Seeds of plant species selected from corn (Zea mays), soybean (Glycine max), velvetleaf (Abutilon theophrasti), lambsquarters (Chenopodium album), wild poinsettia (Euphorbia heterophylla), palmer pigweed (Amaranthus palmeri), waterhemp (common waterhemp, Amaranthus rudis), surinam grass (Brachiaria decumbens), large (Lg) crabgrass (Digitaria sanguinalis), Brazilian crabgrass (Digitaria horizontalis), fall panicum (Panicum dichotomiflorum), giant foxtail (Setaria faberii), green foxtail (Setaria viridis), goosegrass (Eleusine indica), johnsongrass (Sorghum halepense), ragweed (common ragweed, Ambrosia elatior), barnyardgrass (Echinochloa crus-galli), sandbur (southern sandbur, Cenchrus echinatus), arrowleaf sida (Sida rhombifolia), Italian ryegrass (Lolium multiflorum), dayflower (Virginia (VA) dayflower, Commelina virginica), field bindweed (Convolvulus arvensis), morningglory (Ipomoea coccinea), nightshade (eastern black nightshade, Solanum ptycanthum), kochia (Kochia scoparia), yellow nutsedge (Cyperus esculentus), cocklebur (common cocklebur, Xanthium strumarium), smartweed (ladysthumb smartweed, and hairy beggarticks (Bidens pilosa), were planted into a silt loam soil and treated preemergence with test chemicals formulated in a non-phytotoxic solvent mixture which included a surfactant.
(§2) At the same time, plants from these crop and weed species and also horseweed (Canada horseweed, Conyza canadensis), waterhemp_RES1, (ALS & Triazine resistant common waterhemp, Amaranthus rudis), and waterhemp_RES2, (ALS & HPPD resistant common waterhemp, Amaranthus rudis) were planted in pots containing Redi-Earth® planting medium (Scotts Company, 14111 Scottslawn Road, Marysville, Ohio 43041) comprising spaghnum peat moss, vermiculite, wetting agent and starter nutrients were treated with postemergence applications of test chemicals formulated in the same manner. Plants ranged in height from 2 to 18 cm for postemergence treatments (1- to 4-leaf stage). Treated plants and controls were maintained in a greenhouse for 14 to 21 days, after which time all species were compared to controls and visually evaluated. Plant response ratings, summarized in Table E, are based on a scale of 0 to 100 where 0 is no effect and 100 is complete control. A dash (-) response means no test result.

palmer pigweed = type: in vivo, Amaranthus palmeri; conditions: for Pigweed, Palmer plant response rating: scale 0 to 100 (0 no effect, 100 complete control)
Text: as §1, §2

fall panicum = type: in vivo, Panicum dichotomiflorum; conditions: for Panicum, Fall plant response rating: scale 0 to 100 (0 no effect, 100 complete control); for Plant response rating, Panicum, Fall: scale 0 to 100, 0 no effect, 100 complete control
How it was run: (§3)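 Compound in a non-phytotoxic solvent mixture with surfactant was applied preemergence to seeds in silt loam soil, or postemergence to plants 2 to 18 cm tall grown in peat-based potting medium. Plants were kept in a greenhouse for 14 to 21 days, then rated visually against untreated controls on a 0 (no effect) to 100 (complete control) scale.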

goosegrass = type: in vivo, Eleusine indica; conditions: for Goosegrass plant response rating: scale 0 to 100 (0 no effect, 100 complete control)
How it was run: as §3

johnsongrass = type: in vivo, Sorghum halepense; conditions: for Johnsongrass plant response rating: scale 0 to 100 (0 no effect, 100 complete control)
How it was run: as §3

ragweed = type: in vivo, Ambrosia elatior; conditions: for Ragweed plant response rating: scale 0 to 100 (0 no effect, 100 complete control)
How it was run: as §3

barnyardgrass = type: in vivo, Echinochloa crus-galli; conditions: for Barnyardgrass plant response rating: scale 0 to 100 (0 no effect, 100 complete control)
How it was run: as §3

arrowleaf sida = type: in vivo, Sida rhombifolia; conditions: for Arrowleaf Sida plant response rating: scale 0 to 100 (0 no effect, 100 complete control)
How it was run: as §3

Italian ryegrass = type: in vivo, Lolium multiflorum; conditions: for Ryegrass, Italian plant response rating: scale 0 to 100 (0 no effect, 100 complete control)
How it was run: as §3

dayflower = type: in vivo, Commelina virginica; conditions: for Dayflower, VA plant response rating: scale 0 to 100 (0 no effect, 100 complete control)
How it was run: as §3

morningglory = type: in vivo, Ipomoea coccinea; conditions: for Morningglory plant response rating: scale 0 to 100 (0 no effect, 100 complete control)
Text: as §1, §2

[1] = 125 g ai/ha, scale 0 to 100, 0 no effect, 100 complete control
[2] = 250 g ai/ha, scale 0 to 100, 0 no effect, 100 complete control
[3] = Preemergence, 62 g ai/ha, scale 0 to 100, 0 no effect, 100 complete control
[4] = preemergence, 125 g ai/ha, scale 0 to 100, 0 no effect, 100 complete control
[5] = preemergence, 250 g ai/ha, scale 0 to 100, 0 no effect, 100 complete control
[6] = 8 g ai/ha, scale 0 to 100, 0 is no effect, 100 is complete control
[7] = 8 g ai/ha, preemergence, scale 0 to 100, 0 is no effect, 100 is complete control

N#Cc1cccc(Oc2ncc(F)cn2)c1-n1cc(Cl)cn1 [Compound 73]
Soybean plant response rating (soybean; 16 g ai/ha): 15
Soybean plant response rating (soybean; 31 g ai/ha): 25
Soybean plant response rating (soybean; 62 g ai/ha): 25
Plant response rating, Soybean (soybean; [1]): 70
Plant response rating, Soybean (soybean; [2]): 80
Pigweed, Palmer plant response rating (palmer pigweed; 16 g ai/ha): 0
Pigweed, Palmer plant response rating (palmer pigweed; 31 g ai/ha): 75
Pigweed, Palmer plant response rating (palmer pigweed; 62 g ai/ha): 100
Plant response rating, Pigweed, Palmer (palmer pigweed; [1]): 100
Plant response rating, Pigweed, Palmer (palmer pigweed; [2]): 100
Panicum, Fall plant response rating (fall panicum; 16 g ai/ha): 0
Panicum, Fall plant response rating (fall panicum; 31 g ai/ha): 40
Panicum, Fall plant response rating (fall panicum; 62 g ai/ha): 98
Plant response rating, Panicum, Fall (fall panicum; 125 g ai/ha): 98
Plant response rating, Panicum, Fall (fall panicum; 250 g ai/ha): 100
Goosegrass plant response rating (goosegrass; 16 g ai/ha): 0
Goosegrass plant response rating (goosegrass; 31 g ai/ha): 20
Goosegrass plant response rating (goosegrass; 62 g ai/ha): 70
Plant response rating, Goosegrass (goosegrass; [1]): 98
Plant response rating, Goosegrass (goosegrass; [2]): 100
Johnsongrass plant response rating (johnsongrass; 16 g ai/ha): 0
Johnsongrass plant response rating (johnsongrass; 31 g ai/ha): 20
Johnsongrass plant response rating (johnsongrass; 62 g ai/ha): 20
Plant response rating, Johnsongrass (johnsongrass; [1]): 35
Plant response rating, Johnsongrass (johnsongrass; [2]): 85
Ragweed plant response rating (ragweed; 16 g ai/ha): 0
Ragweed plant response rating (ragweed; 31 g ai/ha): 5
Ragweed plant response rating (ragweed; 62 g ai/ha): 30
Plant response rating, Ragweed (ragweed; [1]): 60
Plant response rating, Ragweed (ragweed; [2]): 80
Barnyardgrass plant response rating (barnyardgrass; 16 g ai/ha, preemergence): 0
Barnyardgrass plant response rating (barnyardgrass; 31 g ai/ha, preemergence): 0
Plant response rating, Barnyardgrass (barnyardgrass; [3]): 0
Plant response rating, Barnyardgrass (barnyardgrass; [4]): 20
Plant response rating, Barnyardgrass (barnyardgrass; [5]): 75
Arrowleaf Sida plant response rating (arrowleaf sida; 16 g ai/ha, preemergence): 5
Arrowleaf Sida plant response rating (arrowleaf sida; 31 g ai/ha, preemergence): 40
Plant response rating, Arrowleaf Sida (arrowleaf sida; [3]): 80
Plant response rating, Arrowleaf Sida (arrowleaf sida; [4]): 100
Plant response rating, Arrowleaf Sida (arrowleaf sida; [5]): 100
Ryegrass, Italian plant response rating (Italian ryegrass; 16 g ai/ha): 0
Ryegrass, Italian plant response rating (Italian ryegrass; 31 g ai/ha): 20
Ryegrass, Italian plant response rating (Italian ryegrass; 62 g ai/ha): 35
Plant response rating, Ryegrass, Italian (Italian ryegrass; [1]): 35
Plant response rating, Ryegrass, Italian (Italian ryegrass; [2]): 65
Dayflower, VA plant response rating (dayflower; 16 g ai/ha): 0
Dayflower, VA plant response rating (dayflower; 31 g ai/ha): 0
Dayflower, VA plant response rating (dayflower; 62 g ai/ha): 25
Plant response rating, Dayflower, VA (dayflower; [1]): 65
Plant response rating, Dayflower, VA (dayflower; [2]): 95
Morningglory plant response rating (morningglory; 16 g ai/ha): 0
Morningglory plant response rating (morningglory; 31 g ai/ha): 0
Morningglory plant response rating (morningglory; 62 g ai/ha): 10
Plant response rating, Morningglory (morningglory; [1]): 30
Plant response rating, Morningglory (morningglory; [2]): 60

Clc1cnc(Oc2ccccc2-n2cc(Br)cn2)nc1 [Compound 7, 2-[2-(4-bromo-1H-pyrazol-1-yl)phenoxy]-5-chloropyrimidine]
Plant response rating, Soybean (soybean; [6]): 0
Soybean plant response rating (soybean; 16 g ai/ha): 0
Soybean plant response rating (soybean; 31 g ai/ha): 0
Soybean plant response rating (soybean; 62 g ai/ha): 40
Plant response rating, Soybean (soybean; [1]): 50
Plant response rating, Pigweed, Palmer (palmer pigweed; [6]): 0
Pigweed, Palmer plant response rating (palmer pigweed; 16 g ai/ha): 95
Pigweed, Palmer plant response rating (palmer pigweed; 31 g ai/ha): 85
Pigweed, Palmer plant response rating (palmer pigweed; 62 g ai/ha): 100
Plant response rating, Pigweed, Palmer (palmer pigweed; [1]): 100
Plant response rating, Goosegrass (goosegrass; [6]): 0
Goosegrass plant response rating (goosegrass; 16 g ai/ha): 0
Goosegrass plant response rating (goosegrass; 31 g ai/ha): 35
Goosegrass plant response rating (goosegrass; 62 g ai/ha): 40
Plant response rating, Goosegrass (goosegrass; [1]): 75
Plant response rating, Johnsongrass (johnsongrass; [6]): 0
Johnsongrass plant response rating (johnsongrass; 16 g ai/ha): 0
Johnsongrass plant response rating (johnsongrass; 31 g ai/ha): 0
Johnsongrass plant response rating (johnsongrass; 62 g ai/ha): 40
Plant response rating, Johnsongrass (johnsongrass; [1]): 50
Plant response rating, Ragweed (ragweed; [6]): 0
Ragweed plant response rating (ragweed; 16 g ai/ha): 0
Ragweed plant response rating (ragweed; 31 g ai/ha): 0
Ragweed plant response rating (ragweed; 62 g ai/ha): 0
Plant response rating, Ragweed (ragweed; [1]): 0
Plant response rating, Barnyardgrass (barnyardgrass; [7]): 0
Barnyardgrass plant response rating (barnyardgrass; 16 g ai/ha, preemergence): 0
Barnyardgrass plant response rating (barnyardgrass; 31 g ai/ha, preemergence): 0
Plant response rating, Barnyardgrass (barnyardgrass; [3]): 0
Plant response rating, Barnyardgrass (barnyardgrass; [4]): 0
Plant response rating, Arrowleaf Sida (arrowleaf sida; [7]): 0
Arrowleaf Sida plant response rating (arrowleaf sida; 16 g ai/ha, preemergence): 0
Arrowleaf Sida plant response rating (arrowleaf sida; 31 g ai/ha, preemergence): 25
Plant response rating, Arrowleaf Sida (arrowleaf sida; [3]): 50
Plant response rating, Arrowleaf Sida (arrowleaf sida; [4]): 80
Plant response rating, Ryegrass, Italian (Italian ryegrass; [6]): 0
Ryegrass, Italian plant response rating (Italian ryegrass; 16 g ai/ha): 0
Ryegrass, Italian plant response rating (Italian ryegrass; 31 g ai/ha): 0
Ryegrass, Italian plant response rating (Italian ryegrass; 62 g ai/ha): 0
Plant response rating, Ryegrass, Italian (Italian ryegrass; [1]): 20
Plant response rating, Dayflower, VA (dayflower; [6]): 0
Dayflower, VA plant response rating (dayflower; 16 g ai/ha): 0
Dayflower, VA plant response rating (dayflower; 31 g ai/ha): 0
Dayflower, VA plant response rating (dayflower; 62 g ai/ha): 20
Plant response rating, Dayflower, VA (dayflower; [1]): 65
Plant response rating, Morningglory (morningglory; [6]): 0
Morningglory plant response rating (morningglory; 16 g ai/ha): 0
Morningglory plant response rating (morningglory; 31 g ai/ha): 0
Morningglory plant response rating (morningglory; 62 g ai/ha): 0
Plant response rating, Morningglory (morningglory; [1]): 0
